Test results taken from ChEMBL document CHEMBL3870335, “Bioactivity of topologically confined gramicidin A dimers” (Bioorg Med Chem, 2017).
≈ marks a conversion by molar mass, not a printed value.

How the values were obtained:
[1] = Induction of bulk conductivity in soybean asolectin planar lipid bilayers assessed as residual conductance of black lipid bilayer at 250 nM at pH 8
Klebsiella pneumoniae = experiment: Antimicrobial activity against Klebsiella pneumoniae ATCC 13883 after 16 to 20 hrs by broth microdilution method; type: functional
[2] = Stability of the compound in 1,4-dioxane assessed as negative cotton effect at 50 uM by CD spectroscopic method; type: physicochemical
Plasmodium falciparum [3] = experiment: Antimalarial activity against chloroquine-resistant Plasmodium falciparum Dd2 after 72 hrs by NBT based LDH assay; type: functional; details: Dd2, 72 h
[4] = Stability of the compound in MeOH assessed as negative cotton effect at 50 uM by CD spectroscopic method; type: physicochemical
Staphylococcus aureus = experiment: Antimicrobial activity against methicillin-resistant Staphylococcus aureus ATCC 43300 after 16 to 20 hrs by broth microdilution method; type: functional
[5] = system: Staphylococcus epidermidis; experiment: Antimicrobial activity against Staphylococcus epidermidis PP62A after 16 to 20 hrs by broth microdilution method; type: functional
[6] = Hemolytic activity against human erythrocytes at 20 to 140 uM after 30 mins; type: ADME, cell-based; details: erythrocyte, 0.5 h
[7] = Stability of the compound in THF assessed as negative cotton effect at 50 uM by CD spectroscopic method; type: physicochemical
[8] = Stability of the compound in n-Octanol assessed as negative cotton effect at 50 uM by CD spectroscopic method; type: physicochemical
Streptococcus pneumoniae = experiment: Antimicrobial activity against Streptococcus pneumoniae serotype 19A after 16 to 20 hrs by broth microdilution method; type: functional
Escherichia coli = experiment: Antimicrobial activity against Escherichia coli ATCC 25922 after 16 to 20 hrs by broth microdilution method; type: functional
Proteus mirabilis = experiment: Antimicrobial activity against Proteus mirabilis ATCC 7002 after 16 to 20 hrs by broth microdilution method; type: functional
Enterococcus faecalis = experiment: Antimicrobial activity against Enterococcus faecalis ATCC 29212 after 16 to 20 hrs by broth microdilution method; type: functional
Enterococcus faecium = experiment: Antimicrobial activity against Enterococcus faecium DSMZ 20477 after 16 to 20 hrs by broth microdilution method; type: functional
Pseudomonas aeruginosa = experiment: Antimicrobial activity against Pseudomonas aeruginosa ATCC 27853 after 16 to 20 hrs by broth microdilution method; type: functional
Plasmodium falciparum [9] = experiment: Antimalarial activity against chloroquine-sensitive Plasmodium falciparum 3D7 after 72 hrs by NBT based LDH assay; type: functional; details: 3D7, 72 h
[10] = Induction of bulk conductivity in soybean asolectin planar lipid bilayers assessed as residual conductance of black lipid bilayer at 1 nM at pH 8
[11] = Induction of bulk conductivity in soybean asolectin planar lipid bilayers assessed as residual conductance of black lipid bilayer at 500 nM at pH 8
[12] = Induction of bulk conductivity in soybean asolectin planar lipid bilayers assessed as residual conductance of black lipid bilayer at 0.5 nM at pH 8
[13] = Stability of the compound in acetonitrile assessed as negative cotton effect at 50 uM by CD spectroscopic method; type: physicochemical

| SMILES | Activity [1] [uS] | MIC (Klebsiella pneumoniae) [µg/mL] | Stability [2] | IC50 (Plasmodium falciparum [3]) [µM] | Stability [4] | MIC (Staphylococcus aureus) [µg/mL] | MIC [5] [µg/mL] | Activity [6] | Stability [7] | Stability [8] | MIC (Streptococcus pneumoniae) [µg/mL] | MIC (Escherichia coli) [µg/mL] | MIC (Proteus mirabilis) [µg/mL] | MIC (Enterococcus faecalis) [µg/mL] | MIC (Enterococcus faecium) [µg/mL] | MIC (Pseudomonas aeruginosa) [µg/mL] | IC50 (Plasmodium falciparum [9]) [µM] | Activity [10] [uS] | Activity [11] [uS] | other results |
| --- | --- | --- | --- | --- | --- | --- | --- | --- | --- | --- | --- | --- | --- | --- | --- | --- | --- | --- | --- | --- |
| CC(C)C[C@H]1NC(=O)[C@H](C)NC(=O)CNC(=O)[C@H](C(C)C)NC(=O)CCSSCCC(=O)N[C@@H](C(C)C)C(=O)NCC(=O)N[C@@H](C)C(=O)N[C@H](CC(C)C)C(=O)N[C@@H](C)C(=O)N[C@H](C(C)C)C(=O)N[C@@H](C(C)C)C(=O)N[C@H](C(C)C)C(=O)N[C@@H](Cc2c[nH]c3ccccc23)C(=O)N[C@H](CC(C)C)C(=O)N[C@@H](Cc2c[nH]c3ccccc23)C(=O)N[C@H](CC(C)C)C(=O)N[C@@H](Cc2c[nH]c3ccccc23)C(=O)N[C@H](CC(C)C)C(=O)N[C@@H](Cc2c[nH]c3ccccc23)C(=O)NCCSSCCNC(=O)[C@H](Cc2c[nH]c3ccccc23)NC(=O)[C@@H](CC(C)C)NC(=O)[C@H](Cc2c[nH]c3ccccc23)NC(=O)[C@@H](CC(C)C)NC(=O)[C@H](Cc2c[nH]c3ccccc23)NC(=O)[C@@H](CC(C)C)NC(=O)[C@H](Cc2c[nH]c3ccccc23)NC(=O)[C@@H](C(C)C)NC(=O)[C@H](C(C)C)NC(=O)[C@@H](C(C)C)NC(=O)[C@H](C)NC1=O | < 0.3 | – | – | – | – | – | – | – | – | – | – | – | – | – | – | – | – | – | – | – |
| CC(=O)N[C@H](C(=O)NCC(=O)N[C@@H](C)C(=O)N[C@H](CC(C)C)C(=O)N[C@@H](C)C(=O)N[C@@H](C(=O)N[C@H](C(=O)N[C@@H](C(=O)N[C@@H](Cc1c[nH]c2ccccc12)C(=O)N[C@H](CC(C)C)C(=O)N[C@@H](Cc1c[nH]c2ccccc12)C(=O)N[C@H](CC(C)C)C(=O)N[C@@H](Cc1c[nH]c2ccccc12)C(=O)N[C@H](CC(C)C)C(=O)N[C@@H](Cc1c[nH]c2ccccc12)C(=O)NCCSSCCNC(=O)[C@H](Cc1c[nH]c2ccccc12)NC(=O)[C@@H](CC(C)C)NC(=O)[C@H](Cc1c[nH]c2ccccc12)NC(=O)[C@@H](CC(C)C)NC(=O)[C@H](Cc1c[nH]c2ccccc12)NC(=O)[C@@H](CC(C)C)NC(=O)[C@H](Cc1c[nH]c2ccccc12)NC(=O)[C@H](NC(=O)[C@@H](NC(=O)[C@H](NC(=O)[C@H](C)NC(=O)[C@@H](CC(C)C)NC(=O)[C@H](C)NC(=O)CNC(=O)[C@@H](NC(C)=O)C(C)C)C(C)C)C(C)C)C(C)C)C(C)C)C(C)C)C(C)C)C(C)C | – | > 64 | Stable | 0.0002 | Stable | > 64 | > 64 | Non-Toxic | Stable | Stable | 0.1 (≈ 0.0262 µM) | > 64 | > 64 | > 64 | > 64 | > 64 | 0.01 | – | – | – |
| CC(C)C[C@@H](NC(=O)[C@H](C)NC(=O)CNC(=O)[C@@H](NC(=O)CCS)C(C)C)C(=O)N[C@@H](C)C(=O)N[C@@H](C(=O)N[C@H](C(=O)N[C@@H](C(=O)N[C@@H](Cc1c[nH]c2ccccc12)C(=O)N[C@H](CC(C)C)C(=O)N[C@@H](Cc1c[nH]c2ccccc12)C(=O)N[C@H](CC(C)C)C(=O)N[C@@H](Cc1c[nH]c2ccccc12)C(=O)N[C@H](CC(C)C)C(=O)N[C@@H](Cc1c[nH]c2ccccc12)C(=O)NCCS)C(C)C)C(C)C)C(C)C | – | > 64 | – | – | – | > 64 | > 64 | – | – | – | > 64 | > 64 | > 64 | > 64 | > 64 | > 64 | – | < 0.3 | 0.3 | – |
| CC(C)C[C@@H](NC(=O)[C@H](C)NC(=O)CNC(=O)[C@@H](NC(=O)CCSSc1ccc([N+](=O)[O-])c(C(=O)O)c1)C(C)C)C(=O)N[C@@H](C)C(=O)N[C@@H](C(=O)N[C@H](C(=O)N[C@@H](C(=O)N[C@@H](Cc1c[nH]c2ccccc12)C(=O)N[C@H](CC(C)C)C(=O)N[C@@H](Cc1c[nH]c2ccccc12)C(=O)N[C@H](CC(C)C)C(=O)N[C@@H](Cc1c[nH]c2ccccc12)C(=O)N[C@H](CC(C)C)C(=O)N[C@@H](Cc1c[nH]c2ccccc12)C(=O)NCCO)C(C)C)C(C)C)C(C)C | – | > 64 | – | – | – | > 64 | 1 (≈ 0.467 µM) | – | – | – | > 64 | > 64 | > 64 | 1 (≈ 0.467 µM) | 0.5 (≈ 0.234 µM) | > 64 | – | 0.2 | 115 | – |
| CC(C)C[C@@H](NC(=O)[C@H](C)NC(=O)CNC(=O)[C@@H](NC(=O)CCSSCCC(=O)N[C@H](C(=O)NCC(=O)N[C@@H](C)C(=O)N[C@H](CC(C)C)C(=O)N[C@@H](C)C(=O)N[C@@H](C(=O)N[C@H](C(=O)N[C@@H](C(=O)N[C@@H](Cc1c[nH]c2ccccc12)C(=O)N[C@H](CC(C)C)C(=O)N[C@@H](Cc1c[nH]c2ccccc12)C(=O)N[C@H](CC(C)C)C(=O)N[C@@H](Cc1c[nH]c2ccccc12)C(=O)N[C@H](CC(C)C)C(=O)N[C@@H](Cc1c[nH]c2ccccc12)C(=O)NCCO)C(C)C)C(C)C)C(C)C)C(C)C)C(C)C)C(=O)N[C@@H](C)C(=O)N[C@@H](C(=O)N[C@H](C(=O)N[C@@H](C(=O)N[C@@H](Cc1c[nH]c2ccccc12)C(=O)N[C@H](CC(C)C)C(=O)N[C@@H](Cc1c[nH]c2ccccc12)C(=O)N[C@H](CC(C)C)C(=O)N[C@@H](Cc1c[nH]c2ccccc12)C(=O)N[C@H](CC(C)C)C(=O)N[C@@H](Cc1c[nH]c2ccccc12)C(=O)NCCO)C(C)C)C(C)C)C(C)C | 66 | – | – | 0.0265 | – | – | – | Non-Toxic | – | – | – | > 64 | – | – | – | – | 0.031 | – | – | Activity [12]: 0.4 uS |
| CC(=O)N[C@H](C(=O)NCC(=O)N[C@@H](C)C(=O)N[C@H](CC(C)C)C(=O)N[C@@H](C)C(=O)N[C@@H](C(=O)N[C@H](C(=O)N[C@@H](C(=O)N[C@@H](Cc1c[nH]c2ccccc12)C(=O)N[C@H](CC(C)C)C(=O)N[C@@H](Cc1c[nH]c2ccccc12)C(=O)N[C@H](CC(C)C)C(=O)N[C@@H](Cc1c[nH]c2ccccc12)C(=O)N[C@H](CC(C)C)C(=O)N[C@@H](Cc1c[nH]c2ccccc12)C(=O)NCCSSCCC(=O)N[C@H](C(=O)NCC(=O)N[C@@H](C)C(=O)N[C@H](CC(C)C)C(=O)N[C@@H](C)C(=O)N[C@@H](C(=O)N[C@H](C(=O)N[C@@H](C(=O)N[C@@H](Cc1c[nH]c2ccccc12)C(=O)N[C@H](CC(C)C)C(=O)N[C@@H](Cc1c[nH]c2ccccc12)C(=O)N[C@H](CC(C)C)C(=O)N[C@@H](Cc1c[nH]c2ccccc12)C(=O)N[C@H](CC(C)C)C(=O)N[C@@H](Cc1c[nH]c2ccccc12)C(=O)NCCO)C(C)C)C(C)C)C(C)C)C(C)C)C(C)C)C(C)C)C(C)C)C(C)C | – | – | Stable | – | Stable | – | – | Non-Toxic | Stable | Stable | – | – | – | – | – | – | – | – | – | Stability [13]: Stable |
